Data on 8 compounds can be found in ChEMBL document CHEMBL1909294, “Translating clinical findings into knowledge in drug safety evaluation--drug induced liver injury prediction system (DILIps)” (PLoS Comput Biol, 2011).

For data set [1], the system named is Hepatotoxicity.
The test system of data set [2] is Hepatotoxicity. The source holds these as a separate data set.
For data set [3], the system named is Hepatotoxicity. This is another data set of the same source.
For data set [4], the system named is Hepatotoxicity. This is another data set of the same source.
For data set [5], the system named is Hepatotoxicity. The source holds these as a separate data set.
Data set [6] relates to Hepatotoxicity. This is another data set of the same source.
Data set [7] has as its system Hepatotoxicity. The source holds these as a separate data set.
Data set [8] concerns Hepatotoxicity. This is another data set of the same source.
Data set [9] deals with Hepatotoxicity. The source holds these as a separate data set.
The test system of data set [10] is Hepatotoxicity. The source holds these as a separate data set.
Data set [11] has as its system Hepatotoxicity. This is another data set of the same source.
Data set [12] deals with Hepatotoxicity. This is another data set of the same source.
In data set [13] the test system is Hepatotoxicity. The source holds these as a separate data set.
Data set [14] has as its system Hepatotoxicity. This is another data set of the same source.

Where a SMILES comes first, the peptide text is derived from it. Bridges are numbered along the chain shown (N, C = ends). [ ]: non-standard residue; d: D form. The star is where a group is joined. Threoninol(2S,3R) = C[C@@H](O)[C@H](CO)N*
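For HepSE Combined Scores in this document: combined hepatic side effect score as listed in the training data of the Drug Induced Liver Injury Prediction System (DILIps).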
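For HepSE bilirubinemia in this document: bilirubinemia hepatic side effect score drawn from the DILIps training data, a prediction system for drug-induced liver injury; call rule not given here.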
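For HepSE cholecystitis in this document: Cholecystitis-related hepatic side effect score drawn from the DILIps (drug-induced liver injury prediction) training data set; call rule not given here.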
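For HepSE cholelithiasis in this document: hepatic side effect score for cholelithiasis, drawn from the DILIps training data for predicting drug-induced liver injury; call rule not given here.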
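For HepSE cirrhosis in this document: cirrhosis hepatic side effect score taken from the DILIps (drug-induced liver injury prediction) training set; call rule not given here.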
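For HepSE elevated liver function tests in this document: hepatic side effect score for raised liver function tests, as recorded in the DILIps training set used for predicting drug-induced liver injury.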
For HepSE hepatic failure in this document: call rule not given here.
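For HepSE hepatic necrosis in this document: score of hepatic side effects for hepatic necrosis, drawn from the training data of DILIps, a prediction system for drug-induced liver injury; call rule not given here.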
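For HepSE hepatitis in this document: Hepatitis-related hepatic side effect score taken from the training data of DILIps, a prediction system for drug-induced liver injury; call rule not given here.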
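For HepSE hepatomegaly in this document: hepatic side effect score for hepatomegaly, taken from the training set of the DILIps drug-induced liver injury prediction system; call rule not given here.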
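For HepSE jaundice in this document: Jaundice-related hepatic side-effect score drawn from the training data of the DILIps (drug-induced liver injury prediction system); call rule not given here.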
For HepSE liver disease in this document: call rule not given here.
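For HepSE liver fatty in this document: hepatic side effect score for fatty liver, taken from the DILIps training set for predicting drug-induced liver injury; call rule not given here.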
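For HepSE liver function tests abnormal in this document: hepatic side effect score taken from the DILIps (drug-induced liver injury prediction system) training data, here covering abnormal liver function test findings.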

Compound `CCCCN1C[C@H](O)[C@@H](O)[C@H](O)[C@H]1CO` gave a HepSE_liver fatty in data set [1] of 0. Also, in data set [2], the HepSE_hepatitis was determined as 0. In data set [3], the HepSE_bilirubinemia turned out to be 0. Besides, the “HepSE_Combined Scores” value in [4] was 0. In data set [5], this compound registered a HepSE_cirrhosis of 0. Besides, the HepSE_cholelithiasis in [6] is given as 0. For the same compound, in data set [7], the HepSE_hepatic necrosis was 0. Besides, in data set [8], the “HepSE_elevated liver function tests” value was 0. Further, the HepSE_liver disease in [9] is recorded as 0. The HepSE_jaundice in data set [10] came out at 0. In data set [11], the HepSE_hepatic failure worked out at 0. In data set [12], this compound showed a HepSE_hepatomegaly of 0. Also, in [13], the “HepSE_liver function tests abnormal” value amounted to 0. The same compound gave a HepSE_cholecystitis in [14] of 0.
Take `CC(C)(C)NC(=O)[C@@H]1C[C@@H]2CCCC[C@@H]2CN1C[C@@H](O)[C@H](Cc1ccccc1)NC(=O)[C@H](CC(N)=O)NC(=O)c1ccc2ccccc2n1`: in data set [1] (Liver), the HepSE_liver fatty is 0. For the same compound, the HepSE_hepatitis in data set [2] (Liver) is 1. In addition, the HepSE_bilirubinemia in data set [3] (Liver) came to 1. Moreover, in data set [4] (Liver), the “HepSE_Combined Scores” value was found to be 7. In addition, the HepSE_cirrhosis in [5] (Liver) worked out at 0. Besides, the HepSE_cholelithiasis in [6] (Liver) is on record as 1. The HepSE_hepatic necrosis in [7] (Liver) was 0. In addition, the “HepSE_elevated liver function tests” value in data set [8] (Liver) is 1. In [9] (Liver), the HepSE_liver disease was 1. The compound further came in with a HepSE_jaundice in data set [10] (Liver) of 1. In [11] (Liver), this compound yielded a HepSE_hepatic failure of 0. Further, the HepSE_hepatomegaly in [12] (Liver) stood at 1. Further, in [13] (Liver), the “HepSE_liver function tests abnormal” value is reported as 0. In data set [14] (Liver), this compound showed a HepSE_cholecystitis of 0.
For the compound `CC(=O)[C@@]1(O)CC[C@H]2[C@@H]3C[C@H](C)C4=CC(=O)CC[C@]4(C)[C@H]3CC[C@@]21C`, the HepSE_liver fatty in data set [1] (Liver) is reported as 0. The compound further had a HepSE_hepatitis in data set [2] (Liver) of 1. The HepSE_bilirubinemia in data set [3] (Liver) was 0. In data set [4] (Liver), the “HepSE_Combined Scores” value is given as 5. The compound also had a HepSE_cirrhosis in data set [5] (Liver) of 0. The compound also displayed a HepSE_cholelithiasis in data set [6] (Liver) of 1. Moreover, the HepSE_hepatic necrosis in [7] (Liver) came out at 0. For the same compound, the “HepSE_elevated liver function tests” value in data set [8] (Liver) turned out to be 0. In [9] (Liver), this compound had a HepSE_liver disease of 0. The compound further registered a HepSE_jaundice in data set [10] (Liver) of 1. Besides, the HepSE_hepatic failure in [11] (Liver) was determined as 1. The compound further had a HepSE_hepatomegaly in [12] (Liver) of 1. The “HepSE_liver function tests abnormal” value in [13] (Liver) was determined as 0. Also, the HepSE_cholecystitis in [14] (Liver) stood at 0.
The compound `CO/N=C(\C(=O)N[C@@H]1C(=O)N2C(C(=O)[O-])=C(C[N+]3(C)CCCC3)CS[C@H]12)c1csc(N)n1` had a HepSE_liver fatty in data set [1] of 0. In data set [2], this compound registered a HepSE_hepatitis of 0. This compound showed a HepSE_bilirubinemia in data set [3] of 0. Moreover, the “HepSE_Combined Scores” value in data set [4] is reported as 1. For the same compound, the HepSE_cirrhosis in data set [5] is 0. This compound registered a HepSE_cholelithiasis in data set [6] of 0. The compound further returned a HepSE_hepatic necrosis in [7] of 0. The “HepSE_elevated liver function tests” value in data set [8] stood at 0. The same compound registered a HepSE_liver disease in data set [9] of 0. Besides, the HepSE_jaundice in data set [10] stood at 0. This compound also came in with a HepSE_hepatic failure in [11] of 1. The compound also showed a HepSE_hepatomegaly in data set [12] of 0. For the same compound, the “HepSE_liver function tests abnormal” value in [13] is on record as 0. The HepSE_cholecystitis in data set [14] came out at 0.
In [1], `O=S(=O)(OC[C@H]1O[C@@H](O[C@]2(COS(=O)(=O)[O][Al]([OH])[OH])O[C@H](OS(=O)(=O)[O][Al]([OH])[OH])[C@@H](OS(=O)(=O)[O][Al]([OH])[OH])[C@@H]2OS(=O)(=O)[O][Al]([OH])[OH])[C@H](OS(=O)(=O)[O][Al]([OH])[OH])[C@@H](OS(=O)(=O)[O][Al]([OH])[OH])[C@@H]1OS(=O)(=O)[O][Al]([OH])[OH])[O][Al]([OH])[OH].[OH][Al]([OH])[OH].[OH][Al]([OH])[OH].[OH][Al]([OH])[OH].[OH][Al]([OH])[OH].[OH][Al]([OH])[OH].[OH][Al]([OH])[OH].[OH][Al]([OH])[OH].[OH][Al]([OH])[OH]` showed a HepSE_liver fatty of 0. The compound further showed a HepSE_hepatitis in data set [2] of 0. This compound also came in with a HepSE_bilirubinemia in data set [3] of 0. The “HepSE_Combined Scores” value in data set [4] is on record as 0. The compound further yielded a HepSE_cirrhosis in data set [5] of 0. This compound also displayed a HepSE_cholelithiasis in data set [6] of 0. In addition, the HepSE_hepatic necrosis in [7] came out at 0. Moreover, in data set [8], the “HepSE_elevated liver function tests” value is on record as 0. The compound further gave a HepSE_liver disease in [9] of 0. Further, the HepSE_jaundice in [10] is 0. In addition, the HepSE_hepatic failure in data set [11] is on record as 0. This compound returned a HepSE_hepatomegaly in data set [12] of 0. For the same compound, the “HepSE_liver function tests abnormal” value in [13] turned out to be 0. The compound also came in with a HepSE_cholecystitis in data set [14] of 0.
As for `C[C@@H](O)[C@H](CO)NC(=O)[C@@H]1CSSC[C@H](NC(=O)[C@H](N)Cc2ccccc2)C(=O)N[C@@H](Cc2ccccc2)C(=O)N[C@H](Cc2c[nH]c3ccccc23)C(=O)N[C@@H](CCCCN)C(=O)N[C@@H]([C@@H](C)O)C(=O)N1` (H-[dF]CF[dW]KTC-{Threoninol(2S,3R)}; disulfide 2-7), the HepSE_liver fatty in data set [1] is 1. The HepSE_hepatitis in [2] turned out to be 1. The HepSE_bilirubinemia in data set [3] is listed as 1. The “HepSE_Combined Scores” value in [4] is listed as 6. For the same compound, the HepSE_cirrhosis in data set [5] turned out to be 0. The compound further showed a HepSE_cholelithiasis in data set [6] of 1. Further, the HepSE_hepatic necrosis in [7] is recorded as 0. Further, in data set [8], the “HepSE_elevated liver function tests” value is recorded as 0. The HepSE_liver disease in [9] is on record as 0. The HepSE_jaundice in data set [10] amounted to 1. Also, in data set [11], the HepSE_hepatic failure came to 0. The HepSE_hepatomegaly in [12] was found to be 0. In addition, the “HepSE_liver function tests abnormal” value in data set [13] is listed as 0. The compound further had a HepSE_cholecystitis in [14] of 1.
`CC(C)=CCN1CC[C@]2(C)c3cc(O)ccc3C[C@H]1[C@H]2C` [(+)-PENTAZOCINE] yielded a HepSE_liver fatty in data set [1] of 0. For the same compound, the HepSE_hepatitis in data set [2] worked out at 0. This compound displayed a HepSE_bilirubinemia in data set [3] of 0. In addition, the “HepSE_Combined Scores” value in data set [4] is recorded as 0. Also, the HepSE_cirrhosis in [5] was found to be 0. In data set [6], the HepSE_cholelithiasis worked out at 0. The compound further gave a HepSE_hepatic necrosis in [7] of 0. Moreover, the “HepSE_elevated liver function tests” value in data set [8] is given as 0. Further, the HepSE_liver disease in [9] amounted to 0. This compound also displayed a HepSE_jaundice in data set [10] of 0. For the same compound, the HepSE_hepatic failure in data set [11] is listed as 0. Also, in data set [12], the HepSE_hepatomegaly amounted to 0. The “HepSE_liver function tests abnormal” value in data set [13] is given as 0. Besides, in data set [14], the HepSE_cholecystitis was 0.
In turn, `Nc1nc(NC2CC2)c2ncn([C@H]3C=C[C@@H](CO)C3)c2n1` [ABACAVIR] yielded a HepSE_liver fatty in [1] of 1. This compound also came in with a HepSE_hepatitis in data set [2] of 0. The same compound yielded a HepSE_bilirubinemia in data set [3] of 0. Moreover, the “HepSE_Combined Scores” value in [4] amounted to 3. In [5], this compound registered a HepSE_cirrhosis of 0. The same compound yielded a HepSE_cholelithiasis in data set [6] of 0. For the same compound, the HepSE_hepatic necrosis in data set [7] worked out at 0. In addition, in [8], the “HepSE_elevated liver function tests” value turned out to be 1. The compound also displayed a HepSE_liver disease in [9] of 0. This compound also returned a HepSE_jaundice in [10] of 0. Further, in data set [11], the HepSE_hepatic failure worked out at 1. The HepSE_hepatomegaly in data set [12] came out at 0. In addition, in data set [13], the “HepSE_liver function tests abnormal” value is reported as 0. The HepSE_cholecystitis in data set [14] was 0.
